According to US6610675B1 (priority 1980, dated 2003):

Tests used:
thymus weight in rats = assay: Thymus inhibition testing (subcutaneous administration); format: in vivo, rat
Description: Several further studies were undertaken to determine the effects of selected compounds of the invention on thymi weights in rats when the drugs were systemically administered. In each of these studies, male Sprague-Dawley rats were used. […] On the fifth day (48 hours following the last treatment), the animals were sacrificed and the thymi weights were recorded. […] It is evident that the higher the inhibition of thymus activity at a given dose, the more toxic the compound is.

[1] = system: granulation tissue formation caused by implantation of cotton pellets; assay: Granuloma formation test (local cotton pellet granuloma assay); format: in vivo, rat; settings: for Relative potency (ED40) / Relative potency (ED60): chloromethyl 11β-hydroxy-17α-isopropoxycarbonyloxyandrost-4-en-3-one-17β-carboxylate = 1; for ED40: dose causing 40% inhibition of granulation tissue weight; for ED60: dose causing 60% inhibition of granulation tissue weight
Description: The test compound was dissolved in acetone and aliquots of varying concentrations were injected into cotton pellets. The pellets were dried and then one pellet was implanted beneath the skin of each test rat. Six days later, the animals were sacrificed and the granulation tissue (granuloma) which formed in and around the implanted pellet was removed, dried and weighed. In addition, the thymi and adrenals were removed and weighed.

[2] = Table VII, 3 mg/kg/day s.c., three days
[3] = Table VII, 10 mg/kg/day s.c., three days
[4] = Table VII, 30 mg/kg/day s.c., three days
[5] = Table VII, 100 mg/kg/day s.c., three days
[6] = Table X, betamethasone 17-valerate = 1
[7] = dose causing 50% inhibition of granulation tissue weight
[8] = Table VIII, 10 mg/kg/day s.c., three days

CC(C)OC(=O)O[C@]1(C(=O)OCCl)CC[C@H]2[C@@H]3CCC4=CC(=O)CC[C@]4(C)[C@H]3[C@@H](O)C[C@@]21C [chloromethyl 11β-hydroxy-17α-isopropoxycarbonyloxyandrost-4-en-3-one-17β-carboxylate]
Body weight gain (thymus weight in rats; [2]): 14.7 ± 0.6 g
Thymus (thymus weight in rats; [2]): 439 ± 18 mg
Thymus Inhibition (thymus weight in rats; [2]): 6.8%
Body weight gain (thymus weight in rats; [3]): 10.2 ± 0.7 g
Thymus (thymus weight in rats; [3]): 386 ± 17 mg
Thymus Inhibition (thymus weight in rats; [3]): 18.0%
Body weight gain (thymus weight in rats; [4]): 6.8 ± 2.1 g
Thymus (thymus weight in rats; [4]): 291 ± 22 mg
Thymus Inhibition (thymus weight in rats; [4]): 38.2%
Body weight gain (thymus weight in rats; [5]): 2.8 ± 1.8 g
Thymus (thymus weight in rats; [5]): 185 ± 17 mg
Thymus Inhibition (thymus weight in rats; [5]): 60.7%
Relative Potency (TED40) (thymus weight in rats; [6]): 0.01
Relative Potency (TED50) (thymus weight in rats; [6]): 0.01
TED40 (thymus weight in rats; Table X, dose required to achieve 40% inhibition of thymi weight, subcutaneous): 31.0 mg
TED50 (thymus weight in rats; Table X, dose required to achieve 50% inhibition of thymi weight, subcutaneous): 58.5 mg
Relative Potency (TED40) (thymus weight in rats; Table XII, hydrocortisone 17-butyrate = 1): 1/24
TED40 (thymus weight in rats; Table XII, thymus inhibition effect, subcutaneously): 31.0 mg/kg
Body wt. gain ([1]; Table IV, 100 μg/pellet): 34.9 ± 2.7 g
Granulation tissue Dry wt. ([1]; Table IV, 100 μg/pellet): 70.0 ± 6.0 mg
Granulation tissue Dry wt. Inhibition ([1]; Table IV, 100 μg/pellet): 13.8%
Granulation tissue Wet wt. ([1]; Table IV, 100 μg/pellet): 485 ± 36 mg
Granulation tissue Wet wt. Inhibition ([1]; Table IV, 100 μg/pellet): 14.3%
Thymus wt. ([1]; Table IV, 100 μg/pellet): 452 ± 29 mg
Body wt. gain ([1]; Table IV, 300 μg/pellet): 33.9 ± 1.6 g
Granulation tissue Dry wt. ([1]; Table IV, 300 μg/pellet): 50.9 ± 2.8 mg
Granulation tissue Dry wt. Inhibition ([1]; Table IV, 300 μg/pellet): 37.3%
Granulation tissue Wet wt. ([1]; Table IV, 300 μg/pellet): 431 ± 20 mg
Granulation tissue Wet wt. Inhibition ([1]; Table IV, 300 μg/pellet): 23.9%
Thymus wt. ([1]; Table IV, 300 μg/pellet): 469 ± 25 mg
Body wt. gain ([1]; Table IV, 1000 μg/pellet): 34.0 ± 2.6 g
Granulation tissue Dry wt. ([1]; Table IV, 1000 μg/pellet): 24.1 ± 2.7 mg
Granulation tissue Dry wt. Inhibition ([1]; Table IV, 1000 μg/pellet): 70.3%
Granulation tissue Wet wt. ([1]; Table IV, 1000 μg/pellet): 305 ± 16 mg
Granulation tissue Wet wt. Inhibition ([1]; Table IV, 1000 μg/pellet): 46.1%
Thymus wt. ([1]; Table IV, 1000 μg/pellet): 464 ± 30 mg
Body wt. gain ([1]; Table IV, 3000 μg/pellet): 32.4 ± 2.3 g
Granulation tissue Dry wt. ([1]; Table IV, 3000 μg/pellet): 20.3 ± 1.3 mg
Granulation tissue Dry wt. Inhibition ([1]; Table IV, 3000 μg/pellet): 75.0%
Granulation tissue Wet wt. ([1]; Table IV, 3000 μg/pellet): 292 ± 7 mg
Granulation tissue Wet wt. Inhibition ([1]; Table IV, 3000 μg/pellet): 48.4%
Thymus wt. ([1]; Table IV, 3000 μg/pellet): 459 ± 24 mg
ED50 ([1]; Table XII, anti-inflammatory effect in cotton pellet granuloma): 460 μg/pellet
Relative potency (ED40) [1]: 1
Relative potency (ED60) [1]: 1
ED40 [1]: 307 μg/pellet
ED50 [1, 7]: 460 μg/pellet
ED60 [1]: 690 μg/pellet

CC(C)OC(=O)O[C@]1(C(=O)OCCl)[C@@H](C)C[C@H]2[C@@H]3CCC4=CC(=O)C=C[C@]4(C)[C@@]3(F)[C@@H](O)C[C@@]21C [chloromethyl 9α-fluoro-11β-hydroxy-17α-isopropoxycarbonyloxy-16β-methylandrosta-1,4-dien-3-one-17β-carboxylate]
Body weight gain (thymus weight in rats; [8]): 5.3 ± 1.4 g
Thymus wt. (thymus weight in rats; [8]): 260 ± 26 mg
Thymus wt. Inhibition (thymus weight in rats; [8]): 52.7%
Body wt. gain ([1]; Table IV, 1 μg/pellet): 33.0 ± 1.7 g
Granulation tissue Dry wt. ([1]; Table IV, 1 μg/pellet): 44.4 ± 5.4 mg
Granulation tissue Dry wt. Inhibition ([1]; Table IV, 1 μg/pellet): 45.3%
Granulation tissue Wet wt. ([1]; Table IV, 1 μg/pellet): 423 ± 19 mg
Granulation tissue Wet wt. Inhibition ([1]; Table IV, 1 μg/pellet): 25.3%
Thymus wt. ([1]; Table IV, 1 μg/pellet): 526 ± 30 mg
Body wt. gain ([1]; Table IV, 3 μg/pellet): 30.4 ± 1.1 g
Granulation tissue Dry wt. ([1]; Table IV, 3 μg/pellet): 26.9 ± 4.4 mg
Granulation tissue Dry wt. Inhibition ([1]; Table IV, 3 μg/pellet): 66.9%
Granulation tissue Wet wt. ([1]; Table IV, 3 μg/pellet): 351 ± 19 mg
Granulation tissue Wet wt. Inhibition ([1]; Table IV, 3 μg/pellet): 38.0%
Thymus wt. ([1]; Table IV, 3 μg/pellet): 471 ± 20 mg
Body wt. gain ([1]; Table IV, 10 μg/pellet): 33.0 ± 1.5 g
Granulation tissue Dry wt. ([1]; Table IV, 10 μg/pellet): 29.9 ± 3.3 mg
Granulation tissue Dry wt. Inhibition ([1]; Table IV, 10 μg/pellet): 63.2%
Granulation tissue Wet wt. ([1]; Table IV, 10 μg/pellet): 362 ± 8 mg
Granulation tissue Wet wt. Inhibition ([1]; Table IV, 10 μg/pellet): 36.0%
Thymus wt. ([1]; Table IV, 10 μg/pellet): 474 ± 25 mg
Body wt. gain ([1]; Table IV, 30 μg/pellet): 31.8 ± 1.7 g
Granulation tissue Dry wt. ([1]; Table IV, 30 μg/pellet): 19.9 ± 2.3 mg
Granulation tissue Dry wt. Inhibition ([1]; Table IV, 30 μg/pellet): 75.5%
Granulation tissue Wet wt. ([1]; Table IV, 30 μg/pellet): 315 ± 12 mg
Granulation tissue Wet wt. Inhibition ([1]; Table IV, 30 μg/pellet): 44.3%
Thymus wt. ([1]; Table IV, 30 μg/pellet): 489 ± 26 mg
Relative potency (ED40) [1]: 1228
Relative potency (ED60) [1]: 184
ED40 [1]: 0.25 μg/pellet
ED50 [1, 7]: 0.97 μg/pellet
ED60 [1]: 3.75 μg/pellet

CCOC(=O)O[C@]1(C(=O)OCCl)[C@H](C)C[C@H]2[C@@H]3CCC4=CC(=O)C=C[C@]4(C)[C@@]3(F)C(=O)C[C@@]21C [chloromethyl 17α-ethoxycarbonyloxy-9α-fluoro-16α-methylandrosta-1,4-dien-3,11-dione-17β-carboxylate]
Body wt. gain ([1]; Table V-b, 1 μg/pellet): 23.7 ± 1.5 g
Dry granulation Tissue ([1]; Table V-b, 1 μg/pellet): 55.3 ± 2.6 mg
Dry granulation Tissue Inhibition ([1]; Table V-b, 1 μg/pellet): 17.7%
Thymus wt. ([1]; Table V-b, 1 μg/pellet): 459 ± 41 mg
Body wt. gain ([1]; Table V-b, 3 μg/pellet): 25.6 ± 1.2 g
Dry granulation Tissue ([1]; Table V-b, 3 μg/pellet): 51.6 ± 5.9 mg
Dry granulation Tissue Inhibition ([1]; Table V-b, 3 μg/pellet): 23.2%
Thymus wt. ([1]; Table V-b, 3 μg/pellet): 467 ± 21 mg
Body wt. gain ([1]; Table V-b, 10 μg/pellet): 26.5 ± 2.5 g
Dry granulation Tissue ([1]; Table V-b, 10 μg/pellet): 41.5 ± 4.7 mg
Dry granulation Tissue Inhibition ([1]; Table V-b, 10 μg/pellet): 38.2%
Thymus wt. ([1]; Table V-b, 10 μg/pellet): 544 ± 31 mg
Body wt. gain ([1]; Table V-b, 30 μg/pellet): 20.3 ± 0.9 g
Dry granulation Tissue ([1]; Table V-b, 30 μg/pellet): 39.9 ± 3.6 mg
Dry granulation Tissue Inhibition ([1]; Table V-b, 30 μg/pellet): 40.6%
Thymus wt. ([1]; Table V-b, 30 μg/pellet): 463 ± 24 mg
